Source: patent US8999365B2, “Prevention of bacterial contamination” (priority 2005, dated 2015)

Experiments:
[1] = system: Staphylococcus epidermidis; experiment: Adhesion assay: total attached cells on delmopinol-coated discs; conditions: mean of Exp. I-III
Protocol: The different materials were obtained as discs with an approximate diameter of 30 mm and a thickness of 1 mm. These discs were then mounted in the bottom of Petri dishes
(§1) Procedure A: The test surfaces were treated with 2 mL of the 2% aqueous solution of delmopinol HCl and left unstirred for 15 minutes at room temperature. All delmopinol solution was removed with a pipette. The wells were then thoroughly rinsed three times with 4 mL of a potassium phosphate buffer, 10 mM, pH 7.2. […] Procedure B: The test surfaces were treated with 2 mL of the 2% aqueous solution of delmopinol HCl and left overnight to dry. Microorganisms
(§2) A fresh bacterial strain of Staphylococcus epidermidis was isolated from skin and stored in milk powder at −80° C. The day before experimental use, bacteria were transferred to blood agar and incubated in an atmosphere of 95% H2 and 5% CO2 at 37° C. overnight. Colony-forming units were collected from the blood agar and suspended in 10 mM potassium phosphate buffer, pH 7.2, to an optical density at 600 nm of 0.4, corresponding to approximately 10^8 cells/mL.
Four mL of the bacterial suspension was added on top of coated and non-coated test surfaces mounted in Petri dishes. […] A 10 μL-aliquot of the mixture was added to the surface and analysed after 10 min incubation in the dark. Microscopic images of adherent cells were analysed from 10 fields of each disc. […]

[2] = system: Staphylococcus epidermidis
Protocol: as §1, §2
The bacterial viability of the bacterial suspension, indicated by the vitality percentages, was assessed by fluorescence microscopy using the Live/Dead Bacterial Viability method Molecular Probes, Inc. Eugene, Oreg., USA) according to the instructions of the manufacturer. Thus, SYTO 9 (1.5 μL) and propidium iodide (1.5 μL) were mixed with 1 mL of 10 mM phosphate buffer, pH 7.2. Aliquots of 10 μL were added to 10 μL cell suspension and analysed at 1000× for green/LIVE and red/DEAD cells in the fluorescence microscope (Leitz Aristoplan microscope equipped with a halogen lamp and a 470-490 nm excitation filter).
Four mL of the bacterial suspension was added on top of coated and non-coated test surfaces mounted in Petri dishes. The cells were allowed to adhere for 60 min at 37° C. Non-adherent cells were removed by rinsing the surfaces three times with 4 mL of the buffer solution. […] A 10 μL-aliquot of the mixture was added to the surface and analysed after 10 min incubation in the dark. Microscopic images of adherent cells were analysed from 10 fields of each disc. […]

[3] = system: Staphylococcus epidermidis; experiment: Growth of adherent bacteria on treated surfaces in Tryptic Yeast Extract medium; format: cell-based; conditions: for Growth after 1 day / Growth after 5 days: cell culture IV, Tryptic Yeast Extract medium, 37° C.
Protocol: The ability of bacteria to grow on coated and non-coated surfaces was determined by adding 4 mL of Tryptic Yeast Extract medium to each well and incubating at 37° C.

[4] = Physicochemical properties of delmopinol (pKa, solubility of base)
[5] = coated versus non-coated surfaces

## CCCC(CCC)CCCC1COCCN1CCO (stereo not shown) [delmopinol, 3-(4-propyl-heptyl)-4-(2-hydroxyethyl) morpholine]
[1]; stainless steel coated with 2% delmopinol HCl
  number of attached cells per mm^2, Mean: 418 cells per mm^2
[1]; titanium coated with 2% delmopinol HCl
  number of attached cells per mm^2, Mean: 207 cells per mm^2
[2]
  percentage viable cells, Mean: 9 percentage
[2]; [5]
  viability of adherent cells on delmopinol-coated surfaces (conclusion): significant reduction
[3]; [5]
  growth of surface-associated bacteria (conclusion): significantly inhibited growth
[3]; stainless steel coated
  Growth after 1 day: no
  Growth after 5 days: no
[3]; titanium coated
  Growth after 1 day: no
  Growth after 5 days: no
[4]
  pKa: 7.1
